Source: patent US4542153A, “Methods for changing calcium metabolism within the cells of a mammal” (The Ohio State University Research Foundation, priority 1983, dated 1985)

What was measured:
[1] = test system: spontaneously beating right atria; test: Effects on isolated guinea pig atria: spontaneously beating right atria; format: cell-based
Source text: (§1) The effects of pr-MDI, bu-MDI and Q-bu-MDI on the mechanical and electrical behavior of isolated guinea pig atria were investigated by the method of H. Nawrath, J. Pharmacol. Exp. Ther., 16, 176-182 (1980). The compounds were investigated over the concentration range of 10^-8 to 3×10^-4 M.
(§2) English short-haired guinea pigs, supplied by Carr Animal Supply, of Powell, Ohio, weighing 300-600 g. were killed by a blow on the head and both atria of the animal were quickly dissected out and suspended in a water-jacketed organ bath containing Krebs-Henseleit solution through which a 95% oxygen/5% carbon dioxide mixture was bubbled at 32° C. The solution contained 6.92 g/l of sodium chloride, 0.35 g/l of potassium chloride, 0.29 g/l of magnesium […] heptahydrate, 0.3 g/l of calcium chloride dihydrate, 0.16 g/l of potassium dihydrogen phosphate, 2.1 g/l of sodium bicarbonate and 2.1 g/l of dextrose. The contractile force generated by the isolated artria was recorded isometrically under a 500 mg. preload using a Narco Biosystems force transducer connected to a physiograph DMP-4B recorder, both the transducer and the recorder being obtained from E & M Instrument Co. of Houston, Texas.
Spontaneously beating right atria were tested in a similar manner.

[2] = test system: chloroform anoxia arrhythmia in mice; test: Chloroform Anoxia Assay (chloroform-induced ventricular fibrillation); format: in vivo, Female Swiss albino mice; details: for ED50: i.p., 10 min before chloroform, table: mean values and 95% confidence limits, 10 min
Experimental: The same four compounds were tested for their ability to protect mice from chloroform anoxia by the classical chloroform inhalation procedure described in Lawson J. W.: Antiarrhythmic activity of some isoquinoline derivatives determined by a rapid screening procedure in the mouse, J. Pharmacol. Exp. Ther. 160: 22-31, (1968). In this method, chloroform inhalation leading to respiratory arrest produces ventricular fibrillation. Female Swiss albino mice procured from Laboratory Supply Company, Indianapolis, Indiana, weighing 16-22 g, were pretreated intraperitoneally with the compound under test dissolved in a 5% dextrose solution 10 minutes before exposure to chloroform in a closed container containing chloroform-saturated cotton. The mice were removed from the chloroform atmosphere immediately after respiratory arrest and the electrocardiograph lead II monitored. The ED 50 and 95% confidence limits calculated for the anti-arrhythmic agents by the standard method of Litchfield and Wilcoxon.

[3] = test system: thoracic aorta strips contracted with potassium chloride; test: Vasodilator activity: potassium chloride-contracted aortic strips; format: cell-based, male Sprague-Dawley rats; details: rat aorta contracted with 40 mM potassium chloride; read-out: IC50 (mean and range of SEM) KCl
Source text: (§3) Pr-MDI, bu-MDI, Q-bu-MDI and the compounds of Formulae IIIA, IIIB and IVA having the two R1 groups together forming a methylene group, each R3 a methyl group and R2 an n-propyl group or n-butyl group (the compounds of Formula III are hereinafter abbreviated as sat-pr-MDI and sat-bu-MDI respectively, reference being made where necessary to the cis isomer of Formula III A or the trans isomer of Formula III B while the compounds of Formula IV are similarly referred to as cis sat-Q-pr-MDI and cis sat-Q-bu-MDI) were tested for vasodilator activity by the method of R. F. Furchgott and S. Bhadrakom, J. P. Pharmacol. Ex. Ther., 108, 129-143 (1953).
(§4) The vasodilator activity tests were conducted on male Sprague-Dawley rats, obtained from Harlan Industries, Inc., Cumberland, Indiana. The rats, weight 250-300 g., were sacrified by cervical dislocation and a 2.5 cm. segment of the thoracic aorta was removed and rinshed in physiological buffer. Each aortic segment was cleaned of connective tissue and cut spirally two yield to strips, each 3 by 15 mm. Each strip was mounted isometrically under a tension of 1 g in a 10 ml. tissue bath thermostatically maintained at 37° C. and containing a normal physiological solution aerated with a 95% oxygen/5% carbon dioxide mixture. Forces generated by the strip were monitored using a Grass FT03 isometric transducer coupled to a Grass module 7D polygraph recorder, both the transducer and the recorder being obtained from Grass Instrument Co., of Quincy, Mass.
(§5) After the aortic tissue had been allowed to equilibriate for 1-1.5 hours in the normal physiologic solution, tissue contraction was induced by introducing either 10^-7 M norepinephrine or 40mM potassium chloride buffer to the tissue bath.
(§6) To avoid interference by loss of tension due to time dependent tissue fatigue, separate preliminary experiments were performed to determine the degree of tissue relaxation due to such fatigue and the value of the control tension generated by norepinephrine or potassium chloride prior to the addition of the test compounds was adjusted whenever the duration of the experiment was such that fatigue could be expected to cause more than a 6% loss of tension. […] All concentrations mentioned hereinafter represent the final concentration of the test compound after dilution in the tissue bath.
(§7) The figures of concentration against percent response data obtained from each aortic tissue were transformed to its appropriate probit value and IC50 values were then estimated using linear regression analysis. The normal physiological solution contained 6.9 g/l of sodium chloride, 0.35 g/l of potassium chloride, 0.11 g/l of magnesium chloride hexahydrate, 0.138 g/l of sodium dihydrogen phosphate, 2.1 g/l of sodium bicarbonate, 0.01 g/l of EDTA, 0.368 g/l of calcium chloride dihydrate and 2.0 g/l of dextrose. The high potassium buffers were obtained by substituting potassium chloride for sodium chloride on an equimolar basis to maintain tonicity.

[4] = test system: isolated left atria; test: Effects on isolated guinea pig atria: electrically driven left atria; format: cell-based
Source text: as §1, §2
The isolated left atria were electrically driven by square wave impulses of 3 milliseconds duration at a frequency of 3 Hz. and a voltage of twice the threshold voltage, delivered by a Grass S9 stimulator obtained from Grass Instrument Co., of Quincy, Massachusetts. Two platinum electrodes were used for the stimulation, the anode being in direct contact with the atrial tissue while the cathode had the form of a ring suspended 2.5 centimeters above the anode. Before redetermination of the threshold voltage and generation of a predrug (control) frequency-force profile over the range of 1-5 Hz., an equilibriation time of one hour was allowed. The system was then re-equilibriated at 3 Hz. and twice the threshold voltage as before, then one cumulative dose-response curve of contractile force for one test compound was obtained, followed immediately by redetermination of the threshold voltage and the generation of a post-drug frequency-force profile.
A paired Student's t-test was used to compare predrug and postdrug threshold voltages for each left atrial preparations as well as to compare developed tension at each frequency in the profile of each left atrial preparation. P values of less than 0.05 were considered statistically significant.

[5] = test system: calcium-induced arrhythmias in rats; test: Calcium-induced arrhythmias (CaCl2 injected i.v. into anesthetized rats)
Source text: The experimental method used was that described in Lynch J. J., Rahwan R. G., Witiak D. T.: Effects of 2-substituted-3-dimethylamino-5,6-methylenedioxyindenes on calcium-inducedarrhythmias, J. Cardiovasc. Pharmacol. 3: 49-60 (1981). Male Sprague-Dawley rats weighing 180-250 grams were anesthetized with sodium pentobarbital and a cannula was inserted into the left jugular vein for drug administration. Electrocardiograph equipment was connected to the rat and the lead II was continuously monitored. The compound under test, dissolved in 5% dextrose solution, was administered into the jugular vein of anesthetized rats over a 40 second period. Ten minutes after this treatment, an acute dose of 1 ml/kg of a 10% CaCl2.2H2 O solution was injected into the jugular vein over a period of 10 seconds. The arrhythmias resulting from the calcium administration were graded according to the following criteria: (a) initial change in heart rate following calcium administration; (b) incidences of sinoatrial block, atrioventricular block, ectopic beats, and ventricular flutter and fibrillation; (c) time required for reversion to control ECG; and (d) incidence of mortality.

[6] = test system: mice; test: Toxicity Tests (intraperitoneal LD50); format: in vivo; details: i.p., table: mean values and 95% confidence limits
[7] = test system: thoracic aorta strips contracted with norepinephrine; test: Vasodilator activity: norepinephrine-contracted aortic strips; format: cell-based, male Sprague-Dawley rats
Source text: as §3, §4, §5, §6, §7

[8] = tested acutely and subchronically; earlier published work; cited from earlier work

## CCCCC1=Cc2cc3c(cc2C1N(C)C)OCO3.Cl (centres unmarked) [bu-MDI, 2-butyl-5-6methylenedioxyindene-1-dimethylammonium hydrochloride, reference compound]
[1]; 10^-4 M and 3×10^-4 M
  time to sustained peak effect, right atria, highest concentrations: 5 to 10 min
[1]; 10^-8 to 3×10^-4 M
  effect on spontaneous atrial rate: substantially identical to that of Q-bu-MDI
[1]; except at 3×10^-4 M for Q-bu-MDI
  effect on the contractile force of right atria: much greater negative inotropy
[2]; ED50 from chloroform anoxia, LD50 i.p.
  Therapeutic Index (LD50/ED50): 4.2
[2]; earlier work of applicants
  potency against chloroform/anoxia-induced arrhythmia versus quinidine: more potent than quinidine
[2]; n = 40, hydrochloride
  ED50: 44 mg/kg
[2]; n = 40, listed as Bu--MDI, hydrochloride
  ED50: 44.0 mg/kg
[2]; quinidine = 1.00, chloroform anoxia
  Antiarrhythmic Potency: 1.52
[3]
  IC50: 20.3 µM
[4]; 3×10^-4 M
  effect on frequency-force profile/relation of the stimulated left atrium: significant depression of the frequency-force profile
  effect on threshold voltage required to drive the atria: significantly decreased the threshold voltage
[4]; 10^-8 to 3×10^-4 M
  effect on contractile force of the electrically stimulated left atrium: considerably greater than that of Q-bu-MDI
[5]; earlier work of applicants
  potency and safety against calcium-induced arrhythmia versus verapamil: more potent and safer then verapamil
[5]; i.v., 10 min before CaCl2
  concentration effective against calcium-induced arrhythmias: 3.75 mg/kg
[5]; i.v., Q-bu-MDI at 0.5 mg/kg, pr-MDI and bu-MDI at 3.75 mg/kg
  deleterious side effects: without deleterious side effects
[6]
  LD50: 185 mg/kg
[7]; norepinephrine- or KCl-treated tissue
  relaxation of the aortic tissue: relaxed the aortic tissue
[7]; norepinephrine-treated aortic tissue
  comparative vasodilator activity, norepinephrine-treated tissue: considerably more active than Q-bu-MDI
[7]; rat aorta contracted with 10^-7 M norepinephrine, read-out: IC50 (mean and range of SEM) Norepinephrine
  IC50: 74.1 µM
[8]
  toxicity: remarkable lack of toxicity
